Experimental data published in PMC7997411, “Discovery and Optimization of Selective Inhibitors of Meprin α (Part II)” (Pharmaceuticals, 2021).

Assays:
MMP1 = biological target: T1, MMP1 (Homo sapiens, UniProt P03956); assay: MMP assay (fluorogenic substrate ES010); format: biochemical
T1 construct: purchased R&D Systems 901-MP
T1 sequence (P03956 100-469): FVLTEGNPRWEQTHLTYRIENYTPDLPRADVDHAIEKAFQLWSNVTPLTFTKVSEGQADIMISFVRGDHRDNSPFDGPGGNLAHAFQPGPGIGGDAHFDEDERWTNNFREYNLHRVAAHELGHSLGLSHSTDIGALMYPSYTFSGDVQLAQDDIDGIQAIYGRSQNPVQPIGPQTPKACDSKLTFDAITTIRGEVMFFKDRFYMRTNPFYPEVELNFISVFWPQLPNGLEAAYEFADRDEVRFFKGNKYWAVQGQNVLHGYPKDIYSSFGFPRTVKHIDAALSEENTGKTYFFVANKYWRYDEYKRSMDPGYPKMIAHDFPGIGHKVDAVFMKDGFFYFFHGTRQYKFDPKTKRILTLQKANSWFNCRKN
Procedure: (§1) MMP-1, MMP-2, MMP-8, MMP-9, MMP-10, MMP-13, MMP-14, ADAM10, ADAM17 and Mca-KPLGL-Dpa-AR-NH2 fluorogenic peptide substrate were purchased from R&D Systems (cat # 901-MP, 902-MP, 908-MP, 911-MP, 910-MP, 511-MM, 918-MP, 936-AD, 930-ADB, and ES010, respectively). All common chemicals were purchased from Sigma. NFF449 was purchased from Tocris (cat# 1391) and actinonin was from Sigma-Aldrich, St. Louis, MO, USA (cat# 01809).
(§2) All assays followed the same general protocol. 5 µL of 2× enzyme solution (5 nM) in assay buffer (50 mM Tricine, 50 mM NaCl, 10 mM CaCl2, 0.05% Brij-35, pH 7.5) were added to solid-bottom black 384 plates (Nunc, cat# 264705). Next, test compounds and pharmacological controls were added to corresponding wells using a 384-pin tool device (V&P Scientific, San Diego). After 30 min incubation at RT, the reactions were started by addition of 5 µL of 2× solutions of MMP substrate (R&D Systems cat#: ES010, 20 µM). Reactions were incubated at RT for 1 h, after which the fluorescence was measured using the Synergy H4 multimode microplate reader (Biotek Instruments) (λexcitation = 324 nm, λemission = 390 nm). All compounds were tested in 10-point, 1:3 serial dilutions dose-response format starting with highest concentration of 100 µM. IC50 values were determined using non-linear regression analysis using the GraphPad Prism 8.0 suite of programs.

MMP10 = biological target: T2, MMP10 (Homo sapiens, UniProt P09238); assay: MMP assay (fluorogenic substrate ES010); format: biochemical
T2 construct: purchased R&D Systems 910-MP
Procedure: as §1, §2

MMP3 = MMP3 (Homo sapiens, UniProt P08254); assay: MMP assay (fluorogenic substrate ES010); format: biochemical
Procedure: as §2

ADAM10 = biological target: T3, ADAM10 (Homo sapiens, UniProt O14672); assay: ADAM10 assay; format: biochemical
T3 construct: purchased R&D Systems 936-AD
T3 sequence (O14672 214-748): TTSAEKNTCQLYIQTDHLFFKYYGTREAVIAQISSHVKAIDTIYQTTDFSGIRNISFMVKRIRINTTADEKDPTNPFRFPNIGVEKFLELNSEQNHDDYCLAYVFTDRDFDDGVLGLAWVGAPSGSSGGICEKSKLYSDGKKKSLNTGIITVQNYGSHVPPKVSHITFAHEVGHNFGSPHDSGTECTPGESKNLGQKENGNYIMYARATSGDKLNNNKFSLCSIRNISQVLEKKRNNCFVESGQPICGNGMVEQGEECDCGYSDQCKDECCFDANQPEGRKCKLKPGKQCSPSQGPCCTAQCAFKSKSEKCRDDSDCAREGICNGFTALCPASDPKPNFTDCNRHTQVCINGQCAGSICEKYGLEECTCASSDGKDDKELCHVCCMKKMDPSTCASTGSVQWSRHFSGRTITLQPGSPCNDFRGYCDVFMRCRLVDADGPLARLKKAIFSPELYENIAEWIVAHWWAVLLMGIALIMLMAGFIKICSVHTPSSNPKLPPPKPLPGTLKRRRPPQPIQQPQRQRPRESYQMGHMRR
Procedure: All common chemicals were purchased from Sigma.
Both assays followed the same general protocol. […] After 30 min incubation at RT, the reactions were started by addition of 2.5 µL of 2× solutions of substrate (R&D Systems cat#: ES010, Mca-KPLGL-Dpa-AR-NH2, 20 µM). […] All compounds were tested in 10-point, 1:3 serial dilutions dose-response format starting with highest concentration of 100 µM. IC50 values were determined using non-linear regression analysis using the GraphPad Prism 8.0 suite of programs.

[1] = test system: WM266-4 (skin melanoma), HEK293 (kidney), and BJ (skin fibroblasts) cells; assay: Cell viability, CellTiter Glo assay after 72 h treatment; format: cell-based
Procedure: Figure 6 Characterization of SR24717 for effects on cell viability and cytotoxicity. (A) Effect of SR24717 on viability of WM266-4 (skin melanoma), HEK293 (kidney), and BJ (skin fibroblasts) cells. CellTiter Glo™ assay (Promega) was used after 72 h treatment. (B) Effect of SR24717 on viability of HEK293 (kidney) and BJ (skin fibroblasts) cells. The CellTox Green™ assay (Promega) was used. All experiments performed as 10-point 3-fold concentration-response curves in triplicate.
Test compounds were solubilized in 100% DMSO and added to polypropylene 384-well plates (Greiner cat# 781280). 1250 of BJ skin fibroblasts or primary melanocytes were plated in 384-well plates in 8 µL of serum-free media (HybriCare for BT474, EMEM for HEK293). […] Luminescence was recorded using a Biotek Synergy H1 multimode microplate reader. Viability was expressed as a percentage relative to wells containing media only (0%) and wells containing cells treated with DMSO only (100%). Three parameters were calculated on a per-plate basis: (a) the signal-to-background ratio (S/B), (b) the coefficient for variation (CV; CV = (standard deviation/mean) × 100) for all compound test wells, and (c) the Z’-factor. IC50 values were calculated by fitting normalized data to sigmoidal log vs. response equation utilizing non-linear regression analysis from GraphPad Prism 8.

T2 sequence (P09238 99-476): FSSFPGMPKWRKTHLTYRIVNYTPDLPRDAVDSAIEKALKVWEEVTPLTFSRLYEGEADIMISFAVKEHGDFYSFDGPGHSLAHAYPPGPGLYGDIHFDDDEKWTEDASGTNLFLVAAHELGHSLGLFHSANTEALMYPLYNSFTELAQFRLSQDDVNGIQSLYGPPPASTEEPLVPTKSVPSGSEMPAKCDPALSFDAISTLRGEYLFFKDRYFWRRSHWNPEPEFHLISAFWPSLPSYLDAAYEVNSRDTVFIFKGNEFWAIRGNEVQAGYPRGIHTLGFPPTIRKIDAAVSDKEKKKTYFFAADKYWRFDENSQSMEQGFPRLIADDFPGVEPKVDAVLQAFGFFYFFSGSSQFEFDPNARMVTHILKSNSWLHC
MMP3, sequence (P08254 100-477, species assumed): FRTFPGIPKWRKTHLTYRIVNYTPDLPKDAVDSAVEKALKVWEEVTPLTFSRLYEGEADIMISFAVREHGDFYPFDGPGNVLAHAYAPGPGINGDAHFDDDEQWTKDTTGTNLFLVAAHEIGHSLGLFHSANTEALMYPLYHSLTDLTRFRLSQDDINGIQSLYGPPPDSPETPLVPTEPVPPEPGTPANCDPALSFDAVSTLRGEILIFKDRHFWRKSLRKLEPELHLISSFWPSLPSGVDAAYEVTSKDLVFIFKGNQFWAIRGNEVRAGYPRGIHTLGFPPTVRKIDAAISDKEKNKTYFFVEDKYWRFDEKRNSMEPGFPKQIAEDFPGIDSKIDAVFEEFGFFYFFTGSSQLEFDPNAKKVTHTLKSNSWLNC

| IC50 (MMP1) | IC50 (MMP10) | IC50 (MMP3) | IC50 (ADAM10) | Structure (SMILES) | concentration at which negative effects on viability were observed [1] |
| --- | --- | --- | --- | --- | --- |
| 0.1 µM |  |  |  | CCCCC[C@H](CC(=O)NO)C(=O)N[C@H](C(=O)N1CCC[C@H]1CO)C(C)C [Actinonin, actinonin, reference compound] |  |
|  | > 100 µM | > 100 µM | > 100 µM | COc1cc(OC)nc(SCc2nnc(SCC(=O)NO)n2-c2ccc(N(C)C)cc2)n1 [SR24717] | 100 µM |
